In PMC12408683 (Archives of Toxicology, 2025):

What was measured:
HepG2 cells [1] = assay: DNA adduct quantification by UHPLC-MS/MS in HepG2 cells; type: cell-based, human; details: for E3′-N^2-dG adducts / E3′-N^6-dA adducts: 24 h
Experimental: (§1) To this end, 6 × 10^6 cells were seeded per 10 cm dish and allowed to attach overnight. […] The pellets were washed with phosphate-buffered saline (PBS) and stored at – 20 °C until further use. DNA was isolated as described previously (Carlsson et al. [2022]) and DNA concentration as well as purity were determined with the NanoDrop ND1000 photometer (Thermo Scientific, Waltham MA, USA). As a next step, 30 µg DNA of each sample was digested overnight at 37 °C with micrococcal nuclease (Worthington, Lakewood NJ, USA) and phosphodiesterase II (Worthington, Lakewood NJ, USA) as reported (Carlsson et al. [2022]). Afterwards ^15N-E3′-N^2-dG (2 nM), ^15N-E3′-N^6-dA (0.5 nM) as well as ^15N-dG (20 µM) (Silantes, München, Germany) were added as internal standards. The isotope-labelled internal DNA adduct standards and external DNA adduct standard were synthesised as previously described (Schumacher et al. [2013]). Subsequently, the samples were incubated overnight at 37 °C with alkaline phosphatase (Sigma-Aldrich, St. Louis MO, USA), followed by precipitation of remaining proteins with ethanol and centrifugation at 20,800 g. The supernatant was narrowed down in a vacuum centrifuge (Eppendorf concentrator plus, Eppendorf, Hamburg, Germany) at 60 °C and 1400 g for 2–4 h and the resulting pellet was dissolved in 75% methanol. After another centrifugation step, the solution was transferred into glass vials with inserts.
(§2) The DNA adducts were measured via UHPLC–MS/MS with a multiple reaction method (MRM) using a UHPLC system (Agilent 1290 infinity; Agilent Technologies, Santa Clara CA, USA) consisting of a binary pump (G4220A), an autosampler (G4226A) and a column oven (G1316C). The eluent consisted of 0.1% acetic acid and UHPLC grade methanol. Injection volume was 5 μL and the flow rate was 0.2 mL/min. The gradients are shown in the supporting information, Fig. 2A, B. As a separation column, a Waters XTerraMS C18 2.5 µm (2.1 × 50 mm) was used at 35 °C. The UHPLC was coupled to the Sciex QTrap 5500 MS using a declustering potential of 91 V, an entrance potential of 10 V, a collision energy of 33 V, a collision cell entrance potential of 10 V, curtain gas of 25 psi, an ion spray voltage of 5500 V, a temperature of 550 °C, and an ion source gas of 35 psi as specific mass spectrometry parameters. Measurement was performed with an electron spray ionisation in positive mode using MRM to quantify both adducts. For further quantification of the adduct levels, a standard curve of both adducts was carried along ranging from 60 to 100,000 pM, also containing isotope-labelled standards for reference. Furthermore, the dG-content of each sample was determined via LC–MS/MS with stable isotope dilution analysis to normalise the adduct levels to the overall nucleoside content (Carlsson et al. [2022]; Stegmüller et al. [2018]). The limit of detection (LOD) and the limit of quantification (LOQ) for E3′-N^2-dG and E3′-N^6-dA are provided in supplementary Table S1. The specific compound parameters for both methods are provided in supplementary Table S2.
(§3) As benchmark response (BMR) for all concentration–response curves (adducts, micronuclei), a 2.0-fold increase vs. solvent control was used (BMC100, critical effect size = 1). The determined BMC100 and the corresponding upper and lower boundary (BMCU and BMCL, respectively) of the 90% confidence interval (CI) were used for potency comparison.

HepG2 cells [2] = system: HepG2 cells; parameters: method as in Yang et al. 2022; details: MTT assay; ref Yang et al. 2022; cited from earlier work
HepG2-CYP1A2 cells [3] = assay: Alkaline comet assay (DNA strand breaks) in HepG2-CYP1A2 cells; details: 24 h
Experimental: As a positive control, tBuOOH (20 min, 200 µM) was used. Subsequently, the alkaline comet assay was performed to quantify DNA strand breaks as previously described (Haas et al. [2023b]). Per sample, at least 50 comets were counted with Comet IV software (Instem, Staffordshire, UK) using a Zeiss Axio Observer 7 microscope equipped with an Axiocam 305 mono and ZEN 3.2 software (Carl Zeiss, Jena, Germany).

HepG2-CYP1A2 cells [4] = assay: Western blot of γH2AX and p53 in HepG2-CYP1A2 cells; details: 24 h
Experimental: γH2AX and p53 levels were assessed by SDS-PAGE and western blotting as reported (Fahrer et al. [2013]). To this end, 5 × 10^5 cells were seeded in 3.5-cm dishes to adhere overnight. […] Proteins were separated by SDS-PAGE followed by the transfer onto a nitrocellulose membrane using the wet blot method. The successful transfer was confirmed by Ponceau S staining of the membrane before blocking with 5% non-fat dry milk in Tris-buffered saline with Tween-20 (MP-TBS-T). Subsequently, the membrane was incubated with the respective primary antibodies overnight at 4 °C. The membranes were washed three times for 5 min with TBS-T before incubating with the respective secondary antibody coupled with horseradish peroxidase. The detection was carried out using the Western Lightning Plus-ECL reagent (Perkin Elmer, Waltham MA, USA) with the c300 chemiluminescence imager (Azure Biosystems, Dublin CA, USA). The used primary and secondary antibodies are detailed in supplementary Table S3.

rats = system: rats; parameters: method as in Nesslany et al. 2010; details: up to 2 g ES/kg bw by oral gavage; ref Nesslany et al. 2010; cited from earlier work
HepaRG cells = system: HepaRG cells; parameters: method as in Le Hegarat et al. 2014; details: ref Le Hegarat et al. 2014; cited from earlier work
HepG2-CYP1A2 cells [5] = assay: DNA adduct quantification by UHPLC-MS/MS in HepG2-CYP1A2 cells; type: cell-based, human
Experimental: as §1, §2, §3

[6] = parameters: method as in Yang et al. 2021; details: PBPK modelling, dietary uptake 0.01 mg/kg bw and day; ref Yang et al. 2021; cited from earlier work
[7] = endpoint E3′-N^2-dG, BMR 2.0-fold increase, 90% CI
[8] = endpoint E3′-N^2-dG, BMR 2.0-fold increase, 90% CI, PROAST

C=CC(O)c1ccc(OC)cc1 (stereo not drawn) [1′OH-ES, 1′-hydroxyestragole]
E3′-N^2-dG adducts (HepG2 cells [1]; 0.1 µM 1′OH-ES): 24 adducts/10^8 ncs
E3′-N^2-dG adducts (HepG2 cells [1]; 25 µM 1′OH-ES): 2237 adducts/10^8 ncs
E3′-N^6-dA adducts (HepG2 cells [1]; 25 µM 1′OH-ES): 64 adducts/10^8 ncs
E3′-N^2-dG adducts (HepG2 cells [1]; 35 µM 1′OH-ES): 6881 adducts/10^8 ncs
E3′-N^6-dA adducts (HepG2 cells [1]; 35 µM 1′OH-ES): 139 adducts/10^8 ncs
E3′-N^2-dG levels vs equimolar ES concentrations (HepG2 cells [1]; 1′OH-ES in HepG2 vs ES in HepG2-CYP1A2, 24 h): 10–50 fold
BMC100 (HepG2 cells [1]; endpoint E3′-N^2-dG, BMR 2.0-fold increase): 2.65 µM
BMCL (HepG2 cells [1]; [7]): 0.75 µM
BMCU (HepG2 cells [1]; [7]): 5.65 µM
genotoxic and mutagenic potency compared to the parent compound ES (HepG2 cells [1]; from BMC modelling): 20–30 fold
E3′-N^2-dG adduct level corresponding to significant cytotoxicity (HepG2 cells [1]; highest 1′OH-ES concentration): 6881 adducts/10^8 ncs
E3′-N^2-dG adduct level at which a twofold MN increase was observed (HepG2 cells [1]; molecular dosimetry, flow cytometry and CBMN): 420–2237 adducts/10^8 ncs
concentrations reaching the adduct level required to impair viability (HepG2 cells [1]; more than 6000 E3′-N^2-dG adducts/10^8 ncs): ≥ 35 µM
E3′-N^2-dG adducts required to impair viability and trigger cell death (HepG2 cells [1]; not reached by ES): more than 6000 adducts/10^8 ncs
EC50 (HepG2 cells [2]): 102 µM

C=CCc1ccc(OC)cc1 [ES, estragole]
DNA strand breaks (alkaline comet assay) (HepG2-CYP1A2 cells [3]; 2 mM ES, vs solvent control): small but not statistically significant increase
DNA strand breaks (alkaline comet assay) (HepG2-CYP1A2 cells [3]; up to 2 mM ES): did not elicit an increase of DNA strand break levels
γH2AX induction vs. control (HepG2-CYP1A2 cells [4]; 250 µM ES): threefold
p53 accumulation (HepG2-CYP1A2 cells [4]): No p53 accumulation
MN levels, study outcome (rats): negative
lowest effect concentration for MN formation (HepaRG cells): 1 mM
E3′-N^2-dG adducts, change vs maximum level (HepG2-CYP1A2 cells [5]; 2 mM ES (highest treatment group), 24 h): moderate decline
E3′-N^6-dA adduct (minor DNA adduct) (HepG2-CYP1A2 cells [5]; any tested ES concentration (up to 2 mM), 24 h): neither quantifiable nor detectable
BMCL (HepG2-CYP1A2 cells [5]; [8]): 18.9 µM
BMCU (HepG2-CYP1A2 cells [5]; [8]): 104 µM
BMC100 (HepG2-CYP1A2 cells [5]; endpoint E3′-N^2-dG, BMR 2.0-fold increase, PROAST): 63.3 µM
predicted ES concentration in liver venous blood [6]: 0.01 µM
